The source of these data is patent publication US4788206A, “Pentadieneamides” (Hoffmann-La Roche Inc., priority 1987, dated 1988).

Bounds are passed on as bounds.

The subject of test [1] is PAF-Induced Bronchoconstriction. The test can be described thus: PAF Induced Bronchoconstriction Assay. The format is in vivo, guinea pig. The following applies: for Percent Inhib. of PAF-Induced Bronchoconstriction, mg/Kg i.v.: i.v. (dose not given), 1 minute pretreatment, PAF 1.0 μg/kg i.v.; for inhibition in vivo at 50 mg/kg: Cavia porcellus, po, 50 mg/Kg p.o., 2-hour pretreatment, read-out: Percent Inhib. of PAF-Induced Bronchoconstriction, 50 mg/Kg p.o. As to the method:
PAF Induced Bronchoconstriction Assay
Male animals (Hartlet Strain 400-500 g) were anesthetized with urethane (2 g/kg. i.p.). Each animals' trachea was cannulated and the guinea pigs were repirated using a Harvard small animal rodent respirator (3.0 cc stroke volume, 40 breaths per min.). Tracheal pressure was recorded from a cannula inserted in the trachea and connected to a Statham Pressure Transducer.
The jugular vein was cannulated for administering compounds. Spontaneous breathing was arrested with succinylcholine (1.2 mg/kg. i.v.) administered 2 minutes prior to intravenous injection of platelet activating factor (PAF).
For, the intravenous testing, the guinea pig is given a 5-minute pretreatment with propranolol at a dose of 0.1 mg/kg intravenously. The test compound is administered with a 1 minute pretreatment prior to intravenous challenge with PAF. The animal is than challenged with a 1.0 μg/kg intravenous dose of PAF and the change is tracheal pressure is measured.
For the oral testing, the procedure includes a 2-hour pretreatment period with the test compound administered through an oral gavage tube. Propranolol or succinylcholine and PAF are administered intravenously, and the change in tracheal pressure measured.
The change is tracheal pressure is determined by subtracting the steady state baseline achieved after administration of succinylcholine from the peak bronchoconstriction seen after challenge with PAF. The mean is calculated for each test compound and compared to the mean of the control animals to give the percent inhibition of bronchoconstriction. The standard error is calcuated as the standard error of the mean.

The target of test [2] is T1, PAF Binding, dog platelets (Canis lupus familiaris, UniProt A0A8I3NSH0).
T1 construct: Washed platelets were prepared by resuspending the platelet pellet once with PBS containing 1 mM EDTA; from tissue; host or cells: washed platelets from dog blood
T1 sequence (A0A8I3NSH0 1-343): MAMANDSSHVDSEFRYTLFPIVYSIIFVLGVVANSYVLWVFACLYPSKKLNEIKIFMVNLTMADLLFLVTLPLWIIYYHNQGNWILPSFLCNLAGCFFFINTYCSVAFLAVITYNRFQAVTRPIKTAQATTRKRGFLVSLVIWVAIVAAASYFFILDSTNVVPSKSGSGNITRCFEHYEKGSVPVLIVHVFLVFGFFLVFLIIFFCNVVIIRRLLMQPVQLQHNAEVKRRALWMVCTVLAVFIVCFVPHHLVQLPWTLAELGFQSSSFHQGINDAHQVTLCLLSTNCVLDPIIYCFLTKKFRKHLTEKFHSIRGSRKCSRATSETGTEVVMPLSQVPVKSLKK
As to the kind of experiment: PAF Binding Assay (inhibition of 3H-PAF binding to washed dog platelets). The note with it: dog platelets, 3H-PAF, 10 minutes at room temperature; read-out: Inhib of PAF Binding IC50. Here is the method: The binding assay was done in 400 μl polyethylene microcentrifuge tubes (Beckman) containing 50 μl of an oil mixture of 2 parts Siliconol AR200 (Serva): 1 part Silicone Fluid (Arthur H. Thomas). Buffer, standards, or analogs (150 μl total volume) were added to the tubes. Radiolabelled ^3 H-PAF (50 μl) was then added to the tubes. The reaction was started by the addition of 50 μl of dog platelets (2×10^7 platelets). The tubes were capped, inverted several times to mix, and incubated for 10 minutes at room temperature. The platelets were separated from the incubation mixture by centrifuging 1 minute in a Beckman Microfuge B centrifuge. The tip of the microfuge tube was cut off, and the platelets were washed out of the tip with 200 μl of 50% methanol (Burdick and Jackson). Aquasol (NEN, 10 ml) was added and the radioactivity in the samples was determined using an LS 8100 Beckman liquid scintillation counter linked to a Techtran tape recorder. Data was processed through an in-house computer system. Alternatively, radioactivity was determined using a Searle Mark III liquid scintillation counter linked to a Iso-Data microprocessor.
(b) Preparation of Platelets
Blood was collected from anesthesized or unanesthesized dogs into 50 ml plastic centrifuge tubes containing 3.8% sodium citrate as the anticoagulant (1 volume of citrate/9 volumes of blood). The red cells were removed by centrifugation for 15 minutes at 600 rpm (100-125 g) at room temperature. An aliquot of the supernatant platelet rich plasma (PRP) was saved for cell counting and the remainder was acidified to PH 6.5 with 0.15M citric acid. The platelet pellet was obtained after a 10 minute centrifugation at 2000 rpm (1000 g) at room temperature. Washed platelets were prepared by resuspending the platelet pellet once with PBS containing 1 mM EDTA, centrifuging as noted, and then resuspending the platelets in 0.1% BSA-PBS. An aliquot of the washed platelets was counted. Platelets used for binding assays were diluted to 2×10^7 platelets/assay tube (4×10^8 platelets/ml). Platelet counting was done using a Royco Cell-Crit 921.

For `COc1ccc(C(=C/C=C/C(=O)NCCOCc2cccnc2)c2ccc(OC)cc2)cc1`, the “Percent Inhib. of PAF-Induced Bronchoconstriction, mg/Kg i.v.” value in test [1] is on record as 48 ± 7%. Moreover, in test [2], the IC50 is 0.025 µM. As to `COc1ccc(C(=C/C=C/C(=O)NCCCCc2cncc3ccccc23)c2ccc(OC)cc2)cc1` [(E)-N-[4-(4-isoquinolinyl)butyl]-5,5-bis(4-methoxyphenyl)-2,4-pentadienamide], the 50% inhibitory concentration (IC50) in test [2] is above 1 µM. Regarding `COc1ccc(C(=C/C=C/C(=O)Nc2ccc(-c3cccnc3)cc2)c2ccc(OC)cc2)cc1` [(E)-5,5-bis-(4-methoxyphenyl)-N-[4-(3-pyridinyl)phenyl]-2,4-pentadienamide], in test [1], the inhibition in vivo at 50 mg/kg amounted to 84 ± 8% and the “Percent Inhib. of PAF-Induced Bronchoconstriction, mg/Kg i.v.” value is listed as 97 ± 1%. The half-inhibitory concentration (IC50) in test [2] worked out at 0.01 µM. On to `COc1ccc(/C(C)=C/C=C/C(=O)N[C@H](C)CCCc2cccnc2)cc1` [[R-(E,E)]-5-(4-methoxyphenyl)-N-[1-methyl-4-(3-pyridinyl)butyl]-2,4-hexadienamide], for which the “Percent Inhib. of PAF-Induced Bronchoconstriction, mg/Kg i.v.” value in test [1] is recorded as 42 ± 16%. Also, the IC50 in test [2] turned out to be 0.025 µM. Turning to `COc1ccc(C(=C/C=C/C(=O)NCCCCc2cccnc2)c2ccc(OC)c(OC)c2)cc1OC` [(E)-5,5-bis(3,4-Dimethoxyphenyl)-N-[4-(3-pyridinyl)butyl]-2,4-pentadienamide], in test [1], the inhibition in vivo at 50 mg/kg was found to be 71 ± 2% and the “Percent Inhib. of PAF-Induced Bronchoconstriction, mg/Kg i.v.” value was found to be 78 ± 6%. Further, in test [2], the half-maximal inhibitory concentration (IC50) was 0.055 µM.

With `COc1ccccc1C(=C/C=C/C(=O)NCCCCc1cccnc1)c1ccccc1OC` [(E)-5,5-bis (2-methoxyphenyl)-N-[4-(3-pyridinyl)butyl]-2,4-pentadienamide], the “Percent Inhib. of PAF-Induced Bronchoconstriction, mg/Kg i.v.” value in test [1] is reported as 40 ± 2%. Further, the IC50 in test [2] came out at 0.04 µM. Regarding `COc1ccc(/C(=C/C=C/C(=O)N[C@H](C)CCCc2cccnc2)C2CC2)cc1` [[R-(E,E)]-5-cyclopropyl-5-(4-methoxyphenyl)-N-[1-methyl-4-(3-pyridinyl)butyl]-2,4-pentadienamide], the “Percent Inhib. of PAF-Induced Bronchoconstriction, mg/Kg i.v.” value in test [1] turned out to be 35 ± 5%. In addition, the IC50 in test [2] was found to be 0.05 µM.

Turning to `CC[C@@H](CCCc1cccnc1)NC(=O)/C=C/C=C(c1ccc(OC)cc1)c1ccc(OC)cc1` [[S-(E)]-N-[1-ethyl-4-(3-pyridinyl)butyl]-5,5-bis (4-methoxyphenyl)-2,4-pentadienamide], the “Percent Inhib. of PAF-Induced Bronchoconstriction, mg/Kg i.v.” value in test [1] is on record as 44 ± 8%. The half-maximal inhibitory concentration (IC50) in test [2] came to 0.4 µM. `CCCCCC/C(=C\C=C\C(=O)N[C@H](C)CCCc1cccnc1)c1ccc(OC)cc1` [[R-(E,E)]-5-(4-methoxyphenyl)-N-[1-methyl-4-(3-pyridinyl)butyl]-2,4-undecadienamide]: in test [1], the inhibition in vivo at 50 mg/kg came to 96 ± 1% and the “Percent Inhib. of PAF-Induced Bronchoconstriction, mg/Kg i.v.” value is 100 ± 1%. The IC50 in test [2] is 0.009 µM. With `CCc1ccc(CCCC(C)NC(=O)/C=C/C=C(c2ccc(OC)cc2)c2ccc(OC)cc2)cn1` (racemic) [[R,S-(E)]-5,5-bis-(4-methoxyphenyl)-N-[1-methyl-4-(6-ethyl-3-pyridinyl)butyl]-2,4-pentadienamide], the IC50 in test [2] was 0.9 µM.

Regarding `C/C(=C\C=C(c1ccccc1)c1ccccc1)C(=O)NCCCCc1cccnc1` [(E)-5,5-Diphenyl-2-methyl-N-[4-(3-pyridinyl)butyl]-2,4-pentadienamide], the 50% inhibitory concentration (IC50) in test [2] was determined as 0.1 µM. For `CCCCC/C(=C\C=C\C(=O)N[C@H](C)CCCc1cccnc1)c1ccc(OC)c(OC)c1` [[R-(E,E)]-5-(3,4-dimethoxyphenyl)-N-[1-methyl-4-(3-pyridinyl)butyl]-2,4-decadienamide], the “Percent Inhib. of PAF-Induced Bronchoconstriction, mg/Kg i.v.” value in test [1] was 99 ± 0.4%. For the same molecule, in test [2], the IC50 turned out to be 0.006 µM. The like results for `COc1ccc(C(=C/C=C/C(=O)NC(CCCc2cccnc2)CCCc2cccnc2)c2ccc(OC)cc2)cc1` [(E)-5,5-bis-(4-methoxyphenyl)-N-[1-[3-(3-pyridinyl)propyl]-4-(3-pyridinyl)-butyl]-2,4-pentadienamide] were, in that order, 50 ± 15% and 0.5 µM. On to `CCCC/C(=C\C=C\C(=O)N[C@H](C)CCCc1cccnc1)c1ccc(OC)cc1` [[R-(E,E)]-5-(4-methoxyphenyl)-N-[1-methyl-4-(3-pyridinyl)butyl]-2,4-nonadienamide], for which, in test [1], the inhibition in vivo at 50 mg/kg was 98 ± 1% and the “Percent Inhib. of PAF-Induced Bronchoconstriction, mg/Kg i.v.” value is reported as 99 ± 1%. For the same molecule, the 50% inhibitory concentration (IC50) in test [2] is 0.014 µM. Turning to `COc1ccc(C(=C/C=C/C(=O)Nc2cccc3cnccc23)c2ccc(OC)cc2)cc1` [(E)-N-(5-isoquinolinyl)-5,5-bis(4-methoxyphenyl)-2,4-pentadienamide], the IC50 in test [2] is 0.6 µM. As for `COc1ccc(/C(=C\C=C\C(=O)N[C@H](C)CCCc2cccnc2)C(C)C)cc1` [[R-(2E,4Z)]-5-(4-methoxyphenyl)-6-methyl-N-[1-methyl-4-(3-pyridinyl)butyl]-2,4-heptadienamide], in test [1], the inhibition in vivo at 50 mg/kg came to 71 ± 14% and the “Percent Inhib. of PAF-Induced Bronchoconstriction, mg/Kg i.v.” value turned out to be 89 ± 3%. The IC50 in test [2] was 0.04 µM. The like results for `COc1ccc(C(=C/C=C/C(=O)NC(CCCc2cccnc2)C2CC2)c2ccc(OC)cc2)cc1` (racemic) [[R,S-(E)]-N-[1-cyclopropyl-4-(3-pyridinyl)butyl]-5,5-bis-(4-methoxyphenyl)-2,4-pentadienamide] were, in that order, 99 ± 0.3%, 98 ± 1% and 0.06 µM.

In the case of `COc1ccc(C(=C/C=C/C(=O)NCCCOc2cccnc2)c2ccc(OC)cc2)cc1` [(E)-5,5-bis(4-methoxyphenyl)-N-[3-[(3-pyridinyl)oxy]propyl]-2,4-pentadienamide], the half-inhibitory concentration (IC50) in test [2] amounted to 0.3 µM. Take `COc1ccc(C(=C/C=C/C(=O)NC(C)CCCc2ccc(C)nc2)c2ccc(OC)cc2)cc1` (racemic) [[R,S-(E)]-5,5-bis(4-methoxyphenyl)-N-[1-methyl-4-(6-methyl-3-pyridinyl)butyl]-2,4-pentadienamide]: the IC50 in test [2] was determined as 0.7 µM. With `O=C(/C=C\C=C(c1ccccc1)c1ccccc1)NCCCCc1cccnc1` [(Z)-5,5-diphenyl-N-[4-(3-pyridinyl)butyl]-2,4-pentadienamide], in test [2], the half-maximal inhibitory concentration (IC50) was found to be 0.4 µM. Same read-out and setting: in the case of `COc1cccc(C(=C/C=C/C(=O)NCCCCCCc2cccnc2)c2cccc(OC)c2)c1` [(E)-5,5-bis(3-Methoxyphenyl)-N-[6-(3-pyridinyl)hexyl]-2,4-pentadienamide] it was 0.45 µM; in that of `COc1ccc(C(=C/C=C/C(=O)NCCCc2cccc3ccncc23)c2ccc(OC)cc2)cc1` [(E)-N-[3-(8-isoquinolinyl)propyl]-5,5-bis(4-methoxyphenyl)-2,4-pentadienamide], above 1 µM.

As for `CC(CCCc1cccnc1)NC(=O)/C=C/C=C(c1ccccc1)c1ccccc1` (racemic) [[R,S-(E)]-5,5-Diphenyl-N-[1-methyl-4-(3-pyridinyl)butyl]-2,4-pentadienamide], the IC50 in test [2] worked out at 0.1 µM.

With `COc1cccc(C(=C/C=C/C(=O)NC(C)CCCc2cccnc2)c2cccc(OC)c2)c1` (racemic) [[R.S-(E)]-5,5-bis(3-methoxyphenyl)-N-[1-methyl-4-(3-pyridinyl)butyl]-2,4-pentadienamide], in test [2], the concentration for half-maximal inhibition (IC50) was 0.02 µM.

For orientation: IC50 means the point on the concentration scale where inhibition reaches its midpoint.
